Reference: patent US7202267B2, “Acyloxypyrrolidine derivatives, preparation thereof and application thereof in therapeutic” (Sanofi-aventis, priority 2002, dated 2007)

What was measured:
human V1b receptors = target: T1, human V1b receptors (Homo sapiens, UniProt P47901); experiment: Displacement of [3H]-AVP binding to human V1b receptors; details: cellular or adenohypophyseal membrane preparations
T1 construct: host or cells: cellular or adenohypophyseal membrane preparations
T1 sequence (P47901 1-424): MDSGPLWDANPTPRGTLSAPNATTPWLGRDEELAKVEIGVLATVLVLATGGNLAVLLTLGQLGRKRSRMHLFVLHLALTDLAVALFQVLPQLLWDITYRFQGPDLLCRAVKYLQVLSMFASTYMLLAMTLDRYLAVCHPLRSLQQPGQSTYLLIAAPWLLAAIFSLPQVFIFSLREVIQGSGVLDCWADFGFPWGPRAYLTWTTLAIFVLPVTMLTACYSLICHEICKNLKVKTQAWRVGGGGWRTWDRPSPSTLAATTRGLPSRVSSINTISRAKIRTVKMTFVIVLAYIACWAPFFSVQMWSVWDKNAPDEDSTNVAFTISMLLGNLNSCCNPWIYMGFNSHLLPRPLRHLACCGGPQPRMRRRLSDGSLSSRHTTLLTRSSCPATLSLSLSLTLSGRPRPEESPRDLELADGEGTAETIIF
Protocol: (§1) The affinity of the compounds of formula (I) according to the invention, for V1b receptors for arginine-vasopressin, was determined in vitro using the method described by Y. DE KEYSER et al., Febs Letters, 1994, 356, 215–220. This method consists in studying, in vitro, the displacement of […] arginine-vasopressin ([^3H]-AVP) to V1b receptors present on cellular or adenohypophyseal membrane preparations bearing rat or human V1b receptors.

human V1a receptors = target: T2, human V1a receptors (Homo sapiens, UniProt P37288); experiment: Displacement of [3H]-AVP binding to human V1a receptors; details: cellular or membrane preparations
T2 construct: host or cells: cellular or membrane preparations
Protocol: as §1, with “V1a” for “V1b”, “M. THIBONNIER” for “Y. DE KEYSER”, “J. Biol. Chem.,” for “Febs Letters,”, “269, 3304–3310.” for “356, 215–220.”, “or” for “or adenohypophyseal”

T2 sequence (P37288 whole entry): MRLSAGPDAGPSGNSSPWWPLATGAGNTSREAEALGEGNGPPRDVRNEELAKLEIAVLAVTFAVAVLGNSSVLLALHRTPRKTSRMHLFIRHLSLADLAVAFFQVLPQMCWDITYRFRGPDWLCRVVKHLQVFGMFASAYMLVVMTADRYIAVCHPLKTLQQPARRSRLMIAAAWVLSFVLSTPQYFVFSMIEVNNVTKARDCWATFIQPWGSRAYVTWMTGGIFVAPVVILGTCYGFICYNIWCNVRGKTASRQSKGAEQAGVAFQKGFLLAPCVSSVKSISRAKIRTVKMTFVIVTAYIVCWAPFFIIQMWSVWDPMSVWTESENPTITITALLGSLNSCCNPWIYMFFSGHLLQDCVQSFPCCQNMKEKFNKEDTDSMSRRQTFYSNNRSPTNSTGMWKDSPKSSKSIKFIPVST

COc1ccc(S(=O)(=O)N2C(=O)[C@@](c3ccccc3OC)(N3C[C@H](OC(C)=O)C[C@H]3C(=O)N(C)C)c3cc(Cl)ccc32)c(OC)c1 [Example 1, (3R,5S)-1-[(3R)-5-chloro-1-[(2,4-dimethoxyphenyl)sulfonyl]-3-(2-methoxyphenyl)-2-oxo-2,3-dihydro-1H-indol-3-yl]-5-[(dimethylamino)carbonyl]-3-pyrrolidinyl acetate]
IC50 (human V1b receptors): 0.0034 µM
IC50 (human V1a receptors): 0.084 µM
